Source: patent publication US9868736B2, “Deubiquitinase inhibitors and methods for use of the same” (THE REGENTS OF THE UNIVERSITY OF MICHIGAN, priority 2013, dated 2018)
“Also recorded” adds a separate entry of the source. Like-named read-outs stand apart in the source and are kept apart here.

Key:
[1] = tested on: CD34+ cells from normal donors and myeloma cell lines (MM1.S, H929); test: apoptosis by annexin V staining (flow cytometry); assay type: cell-based; conditions: 24 hours
Method: Cellular apoptosis was measured by detection of annexin V on the surface of cells using flow cytometry. Cells were treated with the indicated concentration of G9 for 24 hours before assessing annexin positivity as an indication of […] using duplicate assays derived from duplicate samples. CD34+ cells from two normal donors (left) or two myeloma cell lines (right) were treated with the indicated concentration of G9 for 24 hours before measuring cell survival by annexin V staining (assessed by flow cytometry). Each data point represents the average of 2 samples assayed in duplicate and presented as the average+/−S.D. for each G9 concentration.

[2] = molecular target: T1, catalytic domain of Usp9x (Usp9xCD) (Homo sapiens, UniProt Q93008); test: Usp9xCD Ub-AMC enzyme assay; assay type: biochemical; conditions: screen of 210 structures
T1 construct: DNA corresponding to amino acids 1553-1960 of human Usp9x; His6-Smt3 (SUMO) fusion tag, ULP1-cleavable (N, cleaved yes); made in house; host or cells: E. coli
T1 sequence (Q93008 1553-1960): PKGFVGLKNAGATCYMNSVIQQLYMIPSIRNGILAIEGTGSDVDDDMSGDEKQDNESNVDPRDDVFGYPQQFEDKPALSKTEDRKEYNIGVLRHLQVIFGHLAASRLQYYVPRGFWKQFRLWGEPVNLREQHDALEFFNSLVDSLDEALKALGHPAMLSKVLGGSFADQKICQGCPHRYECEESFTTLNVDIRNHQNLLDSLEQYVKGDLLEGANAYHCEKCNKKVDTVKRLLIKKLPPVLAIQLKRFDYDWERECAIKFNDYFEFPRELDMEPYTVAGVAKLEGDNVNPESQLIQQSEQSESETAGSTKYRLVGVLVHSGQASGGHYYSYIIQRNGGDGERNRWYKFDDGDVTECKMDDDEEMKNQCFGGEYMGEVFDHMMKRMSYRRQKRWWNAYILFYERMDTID
Method: A series of chemical modifications were initiated to increase our structure activity relationship (SAR) analysis of inhibitors. […] The DNA was cloned into a ULP1-protease cleavable N-terminal His6-Smt3-fusion tag expression vector, derived from pET-28. Protein expression was induced at OD600 2.0, in TB media with Kanamycin overnight at 16° C. Cells were harvested and flash frozen before use. […] Protein was concentrated to roughly 20-40 mg/ml before aliquots were flash-frozen. All steps were performed in the presence of reducing agents, either BME, DTT, or TCEP.
Purified recombinant enzyme in buffer containing 2 mM DTT was buffer exchanged into 25 mM Tris-HCl, 50 mM NaCl and 1 mg/ml BSA using a spin column. […] IC50 values were estimated by integrating the slope of each reaction using GraphPad 6.
Two hundred and ten (210) novel chemical structures were screened for Usp9xCD inhibitory activity using this assay. […] Fluorescent scans were used to assess Usp9xCD inhibitory activity in this enzyme assay for all compounds of interest. Each assay was performed in duplicate and the linear region of each reaction curve was used to calculate IC50 values for Usp9xCD inhibition which are tabulated in Table 1.

Usp9x [3] = molecular target: T2, Usp9x (Homo sapiens, UniProt Q93008); test: Usp9x activity, Mcl-1 and PARP in tumors extracted from treated mice; assay type: in vivo, NSG mice; design: from tissue; host or cells: MM1.S xenograft tumour extracted from NSG mice; conditions: 15 mg/kg, tumors extracted one hour after last injection
T2 sequence (Q93008 whole entry): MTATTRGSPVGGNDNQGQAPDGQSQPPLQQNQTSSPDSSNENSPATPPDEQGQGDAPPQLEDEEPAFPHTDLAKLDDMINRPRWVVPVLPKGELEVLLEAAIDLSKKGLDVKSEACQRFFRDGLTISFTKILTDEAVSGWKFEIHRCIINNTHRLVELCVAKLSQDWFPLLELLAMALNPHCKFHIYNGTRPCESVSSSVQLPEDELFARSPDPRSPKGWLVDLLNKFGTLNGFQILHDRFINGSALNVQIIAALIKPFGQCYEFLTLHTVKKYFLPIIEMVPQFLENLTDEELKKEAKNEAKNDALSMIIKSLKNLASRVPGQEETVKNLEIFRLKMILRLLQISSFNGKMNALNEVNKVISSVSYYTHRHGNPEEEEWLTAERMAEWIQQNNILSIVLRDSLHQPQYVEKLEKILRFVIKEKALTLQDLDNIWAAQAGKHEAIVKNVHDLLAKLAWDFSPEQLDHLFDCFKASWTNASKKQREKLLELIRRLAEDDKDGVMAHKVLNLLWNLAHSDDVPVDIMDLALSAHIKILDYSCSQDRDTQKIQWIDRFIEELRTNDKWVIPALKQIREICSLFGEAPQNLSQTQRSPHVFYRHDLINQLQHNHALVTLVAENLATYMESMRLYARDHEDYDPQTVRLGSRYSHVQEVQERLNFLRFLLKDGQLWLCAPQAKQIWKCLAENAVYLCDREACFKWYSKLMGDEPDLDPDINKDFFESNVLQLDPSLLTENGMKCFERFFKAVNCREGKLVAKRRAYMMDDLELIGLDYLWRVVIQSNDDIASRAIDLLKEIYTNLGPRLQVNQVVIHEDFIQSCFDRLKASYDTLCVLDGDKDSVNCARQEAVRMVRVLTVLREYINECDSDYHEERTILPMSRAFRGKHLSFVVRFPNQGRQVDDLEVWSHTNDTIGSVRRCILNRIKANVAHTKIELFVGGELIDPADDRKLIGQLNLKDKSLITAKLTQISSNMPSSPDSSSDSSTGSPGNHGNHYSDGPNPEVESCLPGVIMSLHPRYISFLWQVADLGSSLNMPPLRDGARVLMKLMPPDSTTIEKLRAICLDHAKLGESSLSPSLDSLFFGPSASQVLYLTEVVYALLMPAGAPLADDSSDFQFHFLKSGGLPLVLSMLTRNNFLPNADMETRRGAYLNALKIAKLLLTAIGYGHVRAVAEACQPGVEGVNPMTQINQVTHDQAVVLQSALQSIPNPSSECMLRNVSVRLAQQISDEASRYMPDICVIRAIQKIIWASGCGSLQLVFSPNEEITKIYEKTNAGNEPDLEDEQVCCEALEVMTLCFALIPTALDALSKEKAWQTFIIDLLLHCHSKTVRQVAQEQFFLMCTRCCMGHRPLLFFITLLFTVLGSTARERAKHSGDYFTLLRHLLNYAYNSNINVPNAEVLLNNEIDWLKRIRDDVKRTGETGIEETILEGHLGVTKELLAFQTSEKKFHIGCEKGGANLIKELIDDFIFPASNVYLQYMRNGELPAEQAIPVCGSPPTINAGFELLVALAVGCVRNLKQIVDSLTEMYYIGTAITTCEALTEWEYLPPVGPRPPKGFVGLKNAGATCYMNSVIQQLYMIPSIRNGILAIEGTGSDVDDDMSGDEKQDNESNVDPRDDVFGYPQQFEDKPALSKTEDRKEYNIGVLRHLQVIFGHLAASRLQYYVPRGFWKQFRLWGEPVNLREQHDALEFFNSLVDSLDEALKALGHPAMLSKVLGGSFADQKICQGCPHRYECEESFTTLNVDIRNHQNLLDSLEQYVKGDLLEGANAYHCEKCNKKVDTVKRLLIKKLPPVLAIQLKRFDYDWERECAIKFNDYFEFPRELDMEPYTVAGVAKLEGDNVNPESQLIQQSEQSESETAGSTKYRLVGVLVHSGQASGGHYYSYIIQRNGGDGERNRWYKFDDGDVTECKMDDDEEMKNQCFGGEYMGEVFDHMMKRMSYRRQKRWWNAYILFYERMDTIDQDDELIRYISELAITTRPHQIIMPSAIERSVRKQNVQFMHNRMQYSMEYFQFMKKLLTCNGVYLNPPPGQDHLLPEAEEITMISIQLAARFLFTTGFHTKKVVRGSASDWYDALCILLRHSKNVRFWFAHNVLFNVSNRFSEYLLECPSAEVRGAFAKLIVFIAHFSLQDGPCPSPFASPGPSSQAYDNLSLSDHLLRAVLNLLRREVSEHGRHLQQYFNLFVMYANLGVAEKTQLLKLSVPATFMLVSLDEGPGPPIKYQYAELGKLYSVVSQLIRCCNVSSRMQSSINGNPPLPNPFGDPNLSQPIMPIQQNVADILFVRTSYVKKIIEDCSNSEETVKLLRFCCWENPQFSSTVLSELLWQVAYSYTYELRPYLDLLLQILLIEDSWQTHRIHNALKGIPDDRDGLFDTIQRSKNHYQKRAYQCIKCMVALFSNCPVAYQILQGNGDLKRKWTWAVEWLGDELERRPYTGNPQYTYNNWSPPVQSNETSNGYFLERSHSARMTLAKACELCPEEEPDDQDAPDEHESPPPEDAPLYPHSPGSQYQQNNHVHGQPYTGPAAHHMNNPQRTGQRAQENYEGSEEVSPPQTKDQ
Method: To analyze that potential, mice were euthanized one hour after their last injection and tumors were extracted, photographed and flash-frozen on dry ice. Tumor tissue was sheared in liquid nitrogen, ground to a powder with a mortar and pestle and proteins extracted to assess Usp9x activity in 20 μg of protein from each tumor specimen. Tumors extracted from control and 15 mg/kg G9 treated mice were assessed for Usp9x activity as described above. […] Also shown are the effects of treatment on Usp9x and Usp24 protein, the latter a DUB closely related to Usp9x. The effect of G9 on the Usp9x substrate Mcl-1, and on cleavage of caspase substrate PARP, are also shown.

A375 tumors = test: A375 melanoma tumor growth in NSG mice; assay type: in vivo
Method: G9 suppresses Usp9x activity in A375 melanoma cells. The effect of G9 on the growth of A375 tumors in NSG mice was examined. Two million A375 cells in Matrigel: cell culture media (1:1) in 0.1 mL were injected subcutaneously in the dorsal region of 9 female NSG mice. After tumor growth to a measurable level (2 weeks post inoculation) animals were separated into 3 groups and mice received 0, 7.5 or 15 mg/kg G9 (prepared as described above) daily by IP injection for 8 days. Tumor volume (left) and animal weight (right) were measured every other day throughout the treatment interval and are reported in FIG. 6. […] Three animals per treatment group were evaluated in this study. Each data point represents the average+/−S.D. of measurements made in three mice. P-values were calculated using GraphPad Instat. P-values<0.05 are considered significant.
A375 tumors grown as subcutaneous implants in NSG mice were separated into three groups and received once daily ip injections with vehicle control (PEG300/DMSO) or G9 at doses of 7.5 or 15 mg/kg. Tumor growth, animal weight, behavior and mobility were monitored during treatment.

Usp9x [4] = molecular target: T2, Usp9x; test: DUB activity (HA-Ub vinyl-sulfone labelling) in lysates of treated intact cells; assay type: cell-based; design: endogenous in cells; host or cells: Z138 lymphoma, MM1.S/MM1.ST myeloma, primary PCL cells, A375 and vemurafenib-resistant A375 melanoma; conditions: for inhibition at 5 µM: MM1.ST or PCL cells
Method: In brief, control and treated cells were lysed by sonication in DUB assay buffer [50 mM Tris-HCl (pH 7.5), 5 mM MgCl2, 250 mM sucrose, 1 mM PMSF, 1× Roche proteinase inhibitory cocktail] and 20 μg of protein from the supernatant fraction (after a 14,000×g spin) were incubated with 200 nM HA-Ub vinyl-sulfone (Boston Biochem) in a final volume of 20 μl. After 90 min at 37° C., reactions were stopped with the addition of 5×-sample buffer. DUB activity was detected by SDS-PAGE resolution of the protein followed by nitrocellulose membrane transfer and immunoblotting with anti-HA.
The time required for G9-mediated Usp9x inhibition in intact multiple myeloma (MM1.S) cells and primary tumor cells from a patient with plasma cell leukemia (PCL) was investigated. MM1.ST (FIG. 1, left) or PCL (FIG. 1, right) cells were treated with 5 μM of compound for the time indicated before Usp9x activity was assessed as described above.

[5] = 7.5 or 15 mg/kg daily IP for 8 days

## CCCC(NC(=O)/C(C#N)=C/c1nc(Cl)ccc1Cl)c1ccc(OCCN2CCOCC2)cc1 (centres unmarked) [Compound G9, (E)-2-Cyano-3-(3,6-dichloropyridin-2-yl)-N-(1-(4-(2-morpholinoethoxy)phenyl)butyl)acrylamide]
[1]
  apoptotic sensitivity of myeloma tumor cells versus normal CD34+ cells: more apoptotically sensitive to G9 than normal CD34+ cells
  effectiveness in inducing apoptosis, tumor (myeloma) versus normal CD34+ cells: ~10 fold
[2]
  Usp9xCD inhibitory activity compared to WP1130: superior inhibitors of Usp9xCD
Usp9x [3]
  Mcl-1 protein levels in MM1.S tumors: reduces Mcl-1 protein levels
  Usp9x DUB activity in MM1.S tumors: reduces Usp9x DUB activity
  apoptosis (PARP cleavage) in MM1.S tumors: activates apoptosis
A375 tumors; 7.5 or 15 mg/kg daily IP
  side effects: behavior and mobility: did not observe changes in behavior or mobility; also recorded: did not have any notable side effects
A375 tumors; [5]
  A375 tumor growth: suppressed A375 tumor growth; also recorded: completely suppressed tumor growth; also recorded: reduced tumor growth
  animal weight: modest impact on animal weight; also recorded: not significantly different
Usp9x [4]; A375 melanoma cells and vemurafenib-resistant A375 variant
  Usp9x activity: inhibition of Usp9x activity in either cell type; also recorded: reduced Usp5 (and Usp9x) activity in both cell types
Usp9x [4]; 5 minutes, read-out: Usp9x activity inhibition
  inhibition at 5 µM: > 80%
Usp9x [4]; 60 minute, read-out: Usp9x inhibition
  inhibition at 5 µM: 100%
Usp9x [4]; Z138 lymphoma cells, 1.25, 2.5 and 5 μM, 4 hours
  Usp9x activity in intact cells: able to inhibit Usp9x activity in intact cells
Usp9x [4]; myeloma (MM1.S) cells, various concentrations, FIG. 10
  Usp9x inhibition: inhibits Usp9x and Usp5
